Data published in patent US20190322676A1, “CERAMIDE GALACTOSYLTRANSFERASE INHIBITORS FOR THE TREATMENT OF DISEASE” (BioMarin Pharmaceutical Inc., priority 2016, published 2019).
Where a name gives a salt, the structure may show the parent alone.

Molecular target: T1, human CGT (ceramide galactosyltransferase), CHO/CGT lysate (Homo sapiens, UniProt Q16880)
T1 construct: Full-length human CGT cDNA was cloned into the BamH1/Xho1 site of pcDNA3.1 (+); expressed in transfected cells; host or cells: Chinese hamster ovary (CHO) cells; lysate prepared with M-PER
T1 sequence (Q16880 21-541): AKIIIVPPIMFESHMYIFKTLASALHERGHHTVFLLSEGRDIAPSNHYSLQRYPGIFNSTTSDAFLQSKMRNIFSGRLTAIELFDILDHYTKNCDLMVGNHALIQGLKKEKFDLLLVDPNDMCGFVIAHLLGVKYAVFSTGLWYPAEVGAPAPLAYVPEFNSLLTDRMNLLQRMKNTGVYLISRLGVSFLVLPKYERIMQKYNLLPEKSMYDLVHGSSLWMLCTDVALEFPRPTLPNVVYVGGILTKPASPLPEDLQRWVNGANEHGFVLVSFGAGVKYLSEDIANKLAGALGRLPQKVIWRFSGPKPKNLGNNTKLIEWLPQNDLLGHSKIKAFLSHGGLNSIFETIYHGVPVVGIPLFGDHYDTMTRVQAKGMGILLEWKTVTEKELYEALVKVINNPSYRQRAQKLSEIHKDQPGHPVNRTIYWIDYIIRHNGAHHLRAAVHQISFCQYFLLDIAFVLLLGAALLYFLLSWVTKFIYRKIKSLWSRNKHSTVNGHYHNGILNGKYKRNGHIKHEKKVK
Experiment: CGT enzyme assay, RapidFire/MS/MS readout (Table 1 ranges with one asterisk *)
Type: biochemical
Details: RapidFire method (range with one asterisk *)
Summary of the method: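 Lysate (4 μg) of CHO cells transfected with full-length human CGT incubated 1 h at 37 °C with compound (0.001–50 μM) in pH 7.2 HEPES buffer with 10 μM C6-NBD-dihydro-ceramide, 17.5 μM UDP-galactose, Mg2+/Mn2+, CHAPS, BSA, 0.5% DMSO; ** set also contained 0.01% Tween 80. Product quantified by RapidFire/MS/MS, normalized to internal standard; IC50 from sigmoidal variable-slope fits.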

Row | SMILES | IC50 [µM]
1 | NC1CC2CCC(C1)N2C(=O)[C@@H](NS(=O)(=O)c1ccc2cc(OC3CCCC3)ccc2c1)C(F)(F)c1ccc(Cl)s1 (stereo partly drawn) [Compound 130-1, N-((2R)-3-(3-amino-8-azabicyclo[3.2.1]octan-8-yl)-1-(5-chlorothiophen-2-yl)-1,1-difluoro-3-oxopropan-2-yl)-6-(cyclopentyloxy)naphthalene-2-sulfonamide] | 1 to 10
2 | NC1CC2CCC(C1)N2C(=O)[C@H](NS(=O)(=O)c1ccc2cc(OC3CCCC3)ccc2c1)C(F)(F)c1ccc(Cl)s1 (stereo partly drawn) [Compound 130-2, N-((2S)-3-(3-amino-8-azabicyclo[3.2.1]octan-8-yl)-1-(5-chlorothiophen-2-yl)-1,1-difluoro-3-oxopropan-2-yl)-6-(cyclopentyloxy)naphthalene-2-sulfonamide] | 10 to 30
3 | NC1CCN(C(=O)[C@@H](NS(=O)(=O)c2ccc3cc(OC4CCCC4)ccc3c2)C(F)(F)c2ccc(Cl)s2)CC1 [Compound 131-1, (R)—N-(3-(4-aminopiperidin-1-yl)-1-(5-chlorothiophen-2-yl)-1,1-difluoro-3-oxopropan-2-yl)-6-(cyclopentyloxy)naphthalene-2-sulfonamide] | 1 to 10
4 | NC1CCN(C(=O)[C@H](NS(=O)(=O)c2ccc3cc(OC4CCCC4)ccc3c2)C(F)(F)c2ccc(Cl)s2)CC1 [Compound 131-2, (S)—N-(3-(4-aminopiperidin-1-yl)-1-(5-chlorothiophen-2-yl)-1,1-difluoro-3-oxopropan-2-yl)-6-(cyclopentyloxy)naphthalene-2-sulfonamide] | 1 to 10
5 | N[C@H]1CCCN(C(=O)[C@@H](NS(=O)(=O)c2ccc3cc(OC4CCCC4)ccc3c2)C(F)(F)c2ccc(Br)cc2)C1 [Compound 132-1, N—((R)-3-((S)-3-aminopiperidin-1-yl)-1-(4-bromophenyl)-1,1-difluoro-3-oxopropan-2-yl)-6-(cyclopentyloxy)naphthalene-2-sulfonamide trifluoroacetate] | 1 to 10
6 | N[C@H]1CCCN(C(=O)[C@H](NS(=O)(=O)c2ccc3cc(OC4CCCC4)ccc3c2)C(F)(F)c2ccc(Br)cc2)C1 [Compound 132-2, N—((S)-3-((S)-3-aminopiperidin-1-yl)-1-(4-bromophenyl)-1,1-difluoro-3-oxopropan-2-yl)-6-(cyclopentyloxy)naphthalene-2-sulfonamide trifluoroacetate] | 10 to 30
7 | NC1CC2CCC(C1)N2C(=O)[C@@H](NC(=O)C(=O)c1ccc2cc(OC3CCCC3)ccc2c1)C(F)(F)c1ccc(-c2ccc(Cl)cc2)cc1 (stereo partly drawn) [Compound 133-1, N-((2R)-3-(3-amino-8-azabicyclo[3.2.1]octan-8-yl)-1-(4′-chloro-[1,1′-biphenyl]-4-yl)-1,1-difluoro-3-oxopropan-2-yl)-2-(6-(cyclopentyloxy)naphthalen-2-yl)-2-oxoacetamide trifluoroacetate] | 1 to 10
8 | NC1CC2CCC(C1)N2C(=O)[C@H](NC(=O)C(=O)c1ccc2cc(OC3CCCC3)ccc2c1)C(F)(F)c1ccc(-c2ccc(Cl)cc2)cc1 (stereo partly drawn) [Compound 133-2, N-((2S)-3-(3-amino-8-azabicyclo[3.2.1]octan-8-yl)-1-(4′-chloro-[1,1′-biphenyl]-4-yl)-1,1-difluoro-3-oxopropan-2-yl)-2-(6-(cyclopentyloxy)naphthalen-2-yl)-2-oxoacetamide trifluoroacetate] | 30 to 100
9 | COc1cc(C(F)(F)[C@H](NS(=O)(=O)c2ccc3cc(OC4CCCC4)ccc3c2)C(=O)N2C3CCC2CC(N)C3)ccc1-c1ccc(Cl)cc1 (stereo partly drawn) [Compound 135-1, N-((2R)-3-(3-amino-8-azabicyclo[3.2.1]octan-8-yl)-1-(4′-chloro-2-methoxy-[1,1′-biphenyl]-4-yl)-1,1-difluoro-3-oxopropan-2-yl)-6-(cyclopentyloxy) naphthalene-2-sulfonamide trifluoroacetate] | < 1
10 | COc1cc(C(F)(F)[C@@H](NS(=O)(=O)c2ccc3cc(OC4CCCC4)ccc3c2)C(=O)N2C3CCC2CC(N)C3)ccc1-c1ccc(Cl)cc1 (stereo partly drawn) [Compound 135-2, N-((2S)-3-(3-amino-8-azabicyclo[3.2.1]octan-8-yl)-1-(4′-chloro-2-methoxy-[1,1′-biphenyl]-4-yl)-1,1-difluoro-3-oxopropan-2-yl)-6-(cyclopentyloxy)naphthalene-2-sulfonamide trifluoroacetate] | 1 to 10
11 | NC1CC2CCC(C1)N2C(=O)[C@@H](NC(=O)[C@H](O)c1ccc2cc(OC3CCCC3)ccc2c1)C(F)(F)c1ccc(-c2ccc(Cl)cc2)cc1 (stereo partly drawn) [Compound 136-1, (2R)—N-((2R)-3-(3-amino-8-azabicyclo[3.2.1]octan-8-yl)-1-(4′-chloro-[1,1′-biphenyl]-4-yl)-1,1-difluoro-3-oxopropan-2-yl)-2-(6-(cyclopentyloxy)naphthalen-2-yl)-2-hydroxyacetamide trifluoroacetate] | 1 to 10
12 | NC1CC2CCC(C1)N2C(=O)[C@H](NC(=O)[C@@H](O)c1ccc2cc(OC3CCCC3)ccc2c1)C(F)(F)c1ccc(-c2ccc(Cl)cc2)cc1 (stereo partly drawn) [Compound 136-2, (2S)—N-((2S)-3-(3-amino-8-azabicyclo[3.2.1]octan-8-yl)-1-(4′-chloro-[1,1′-biphenyl]-4-yl)-1,1-difluoro-3-oxopropan-2-yl)-2-(6-(cyclopentyloxy)naphthalen-2-yl)-2-hydroxyacetamide trifluoroacetate] | 30 to 100
13 | NC1CC2CCC(C1)N2C(=O)[C@H](NC(=O)[C@H](O)c1ccc2cc(OC3CCCC3)ccc2c1)C(F)(F)c1ccc(-c2ccc(Cl)cc2)cc1 (stereo partly drawn) [Compound 136-4, (2R)—N-((2S)-3-(3-amino-8-azabicyclo[3.2.1]octan-8-yl)-1-(4′-chloro-[1,1′-biphenyl]-4-yl)-1,1-difluoro-3-oxopropan-2-yl)-2-(6-(cyclopentyloxy)naphthalen-2-yl)-2-hydroxyacetamide trifluoroacetate] | 30 to 100

Second part, the molecule after the results:

Row | IC50 [µM] | SMILES
14 | 10 to 30 | NC1CCN(C(=O)[C@@H](NC(=O)C(=O)c2ccc(OCC3CCCCC3)cc2)C(F)(F)c2ccc(-c3ccc(Cl)cc3)cc2)CC1 [Compound 134-1, (R)—N-(3-(4-aminopiperidin-1-yl)-1-(4′-chloro-[1,1′-biphenyl]-4-yl)-1,1-difluoro-3-oxopropan-2-yl)-2-(4-(cyclohexylmethoxy)phenyl)-2-oxoacetamide trifluoroacetate]
15 | 30 to 100 | NC1CCN(C(=O)[C@H](NC(=O)C(=O)c2ccc(OCC3CCCCC3)cc2)C(F)(F)c2ccc(-c3ccc(Cl)cc3)cc2)CC1 [Compound 134-2, (S)—N-(3-(4-aminopiperidin-1-yl)-1-(4′-chloro-[1,1′-biphenyl]-4-yl)-1,1-difluoro-3-oxopropan-2-yl)-2-(4-(cyclohexylmethoxy)phenyl)-2-oxoacetamide trifluoroacetate]
16 | 1 to 10 | O=C([C@@H](NS(=O)(=O)c1ccc2cc(OC3CCCC3)ccc2c1)C(F)(F)c1ccc(-c2ccc(Cl)cc2)cc1)N1CCNCC1 [Compound 137-1, (R)—N-(1-(4′-chloro-[1,1′-biphenyl]-4-yl)-1,1-difluoro-3-oxo-3-(piperazin-1-yl)propan-2-yl)-6-(cyclopentyloxy)naphthalene-2-sulfonamide trifluoroacetate]
17 | 10 to 30 | O=C([C@H](NS(=O)(=O)c1ccc2cc(OC3CCCC3)ccc2c1)C(F)(F)c1ccc(-c2ccc(Cl)cc2)cc1)N1CCNCC1 [Compound 137-2, (S)—N-(1-(4′-chloro-[1,1′-biphenyl]-4-yl)-1,1-difluoro-3-oxo-3-(piperazin-1-yl)propan-2-yl)-6-(cyclopentyloxy)naphthalene-2-sulfonamide trifluoroacetate]
18 | < 1 | NCC1CCN(C(=O)[C@@H](NS(=O)(=O)c2ccc3cc(OC4CCCC4)ccc3c2)C(F)(F)c2ccc(-c3ccc(Cl)cc3)cc2)CC1 [Compound 138-1, (R)—N-(3-(4-(aminomethyl)piperidin-1-yl)-1-(4′-chloro-[1,1′-biphenyl]-4-yl)-1,1-difluoro-3-oxopropan-2-yl)-6-(cyclopentyloxy)naphthalene-2-sulfonamide trifluoroacetate]
19 | 1 to 10 | NCC1CCN(C(=O)[C@H](NS(=O)(=O)c2ccc3cc(OC4CCCC4)ccc3c2)C(F)(F)c2ccc(-c3ccc(Cl)cc3)cc2)CC1 [Compound 138-2, (S)—N-(3-(4-(aminomethyl)piperidin-1-yl)-1-(4′-chloro-[1,1′-biphenyl]-4-yl)-1,1-difluoro-3-oxopropan-2-yl)-6-(cyclopentyloxy)naphthalene-2-sulfonamide trifluoroacetate]
20 | < 1 | N[C@@H]1CCN(C(=O)[C@@H](NS(=O)(=O)c2ccc3cc(OC4CCCC4)ccc3c2)C(F)(F)c2ccc(Br)cc2)C1 [Compound 139-1, N—((R)-3-((R)-3-aminopyrrolidin-1-yl)-1-(4-bromophenyl)-1,1-difluoro-3-oxopropan-2-yl)-6-(cyclopentyloxy)naphthalene-2-sulfonamide]
21 | 1 to 10 | N[C@@H]1CCN(C(=O)[C@H](NS(=O)(=O)c2ccc3cc(OC4CCCC4)ccc3c2)C(F)(F)c2ccc(Br)cc2)C1 [Compound 139-2, N—((S)-3-((R)-3-aminopyrrolidin-1l-yl)-1-(4-bromophenyl)-1,1-difluoro-3-oxopropan-2-yl)-6-(cyclopentyloxy)naphthalene-2-sulfonamide]
